{"source": "patent US9226503B2", "about": "“Composition and method for attraction of emerald ash borer Agrilus planipennis fairmaire (coleoptera: buprestidae)” (Her Majesty the Queen in Right of Canada, as represented by …, priority 2011, dated 2016)", "key": {"[1]": {"test_system": "A. planipennis", "details": "Silk et al. 2009; cited from earlier work"}, "[2]": {"test_system": "A. planipennis", "experiment": "Two-choice Y-tube olfactometer assay", "type": "in vivo, Agrilus planipennis", "details": "(3Z)-hexenol 5 μg", "procedure": "A Y-tube olfactometer (Analytical Research Systems Inc, Gainsville, Fla.) was used to test for attraction of A. planipennis to lactone isomers and host volatiles. […] Each arm was connected to a cylinder that contained the stimulus. Charcoal filtered air was passed into each arm at a flow rate of 1.2 L/min. Treatments included the pheromone alone: (3Z)-lactone (10 μg); (3E)-lactone (10 μg); and 60:40 (3E):(3Z)-lactone (10 μg). Next, we tested bark sesquiterpenes and a green leaf volatile alone: Phoebe oil (25 μg and 2.5 μg) and (3Z)-hexenol (5 μg). We then tested the pheromone combined with bark sesquiterpenes: (3Z)-lactone (10 μg)+Phoebe oil (at both 25 μg and 2.5 μg); (3E)-lactone (10 μg)+Phoebe oil (at both 25 μg and 2.5 μg). Finally, we tested the pheromone combined with the green leaf volatile: (3Z)-lactone (10 μg)+(3Z)-hexenol (5 μg); and (3E)-lactone (10 μg)+(3Z)-hexenol (5 μg). Each stimulus (l μl for single compound treatments and a total of 2 μl for two-compound treatments) was diluted in hexane, placed on a strip of filter paper and given one minute for the solvent to evaporate before being placed in the olfactometer. A second filter paper, treated with the equivalent volume of solvent was placed in the other arm of the olfactometer to serve as the control. The apparatus was rinsed with acetone after each treatment, and the arm attached to the test stimulus was randomized between replicates.\nFor each treatment, we tested increasing numbers of adults until we obtained a minimum of 12 beetles responding to the stimuli (either positively or negatively). To obtain this minimum, we tested 15-54 beetles per treatment. For each trial, a single A. planipennis (mature virgin male or female, >10 days old) was given ten minutes to choose between the two stimuli; adults were used only once in the bioassay. […] A chi-square test was conducted for each independent trial."}, "[3]": {"test_system": "A. planipennis", "details": "background, cited studies; cited from earlier work"}, "[4]": {"test_system": "A. planipennis", "experiment": "Field trapping 2011 experiment 2: (3Z)-lactone, (3Z)-hexenol and trap height factorial, dark green traps", "type": "in vivo, Agrilus planipennis", "details": "2×2×2 factorial, lactone 3 mg/lure", "procedure": "Two trapping experiments were conducted in green and white ash plantations (F. pennsylvanica Marsch and F. americana L.) located 40-60 km southeast of Sarnia, Ontario in 2011. Trees were 20-30 yr old, 5-8 m tall, 12-18 cm in diameter, and spaced 2-3 m apart within and between rows. Five sites were used in total: four were green ash and the fifth was a white ash plantation. Trees at four of the sites generally appeared healthy with few or no signs of decline and only a few with obvious signs and symptoms of infestation by A. planipennis. At the fifth site, obvious crown decline and signs of infestation were apparent on about one-quarter of trees.\nGreen prism sticky traps (0.30 cm×35.00 cm×58.75 cm) (Synergy Semiochemicals Corp., Burnaby, BC) were used in all field trials, deployed using modified umbrella rig spreaders (Zing Products, Westport, Mass.). Traps were spaced 20-25 m apart and lure treatments replicated in randomized complete block designs. Traps were deployed either using ropes tied between two trees or using a single line over a canopy branch, as described further below for each specific experimental objective. Traps were typically checked every 2 wk and A. planipennis were collected, counted, and sexed.\nExperiment 2 was a 2×2×2 factorial experiment designed to test the effects of (3Z)-lactone, (3Z)-hexenol, trap height, and their interactions on numbers of A. planipennis captured on sticky, dark green (540-nm wavelength) (Francese et al 2010a) prism traps. Traps were baited with either (3Z)-lactone, (3Z)-hexenol, (3Z)-lactone+(3Z)-hexenol, or neither compound (unbaited control) and all treatments were deployed both below the canopy or in the mid-canopy. Traps placed below the canopy were suspended from ropes tied between two trees so the trap was 1-1.5 m from either tree and the top of the trap was 1.5-2 m above the ground. Traps in the canopy were deployed from a single line looped over a mid-canopy branch such that traps were 1-1.5 m from the main stem and their tops were 6 m above ground. (3Z)-Lactone was loaded onto rubber septa lures at a dosage of 3 mg/lure. Release rates of the (3Z)-lactone and (3Z)-hexenol were 60-70 μg/day and 50-100 mg/day, respectively at 25° C. Traps were in the field from 8 June-5 August, with one block at one site (Nauvoo Ranch), 5 blocks at a second site (LaSalle, the one white ash plantation), and 4 blocks at a third site (Brook Line). The 3 mg (3Z)-lactone lures were estimated to maintain adequate release rates for a minimum of three weeks and thus were replaced after three weeks; (3Z)-hexenol lures were not replaced during the experiment.\nNumbers of A. planipennis captured in the trapping experiments were subjected to ANOVA separately for males and females. […]"}, "[5]": {"test_system": "A. planipennis antennae", "experiment": "EAG dose-response study", "parameters": "species or system Agrilus planipennis", "details": "1 μg applied dose; n=80, 15 antennal preparations", "from_the_text": "EAG analyses were made by methods and equipment generally described by Cossé & and Bartelt (2000). EAG connections were made by inserting a glass-pipette silver-grounding electrode into the back of an excised beetle head. A second glass-pipette silver-recording probe was placed in contact with the distal end of one antenna. Both pipettes were filled with Beadle-Ephrussi (Ephrussi and Beadle 1936) saline.\nFor the EAG-dose-response study, (3Z)- and (3E)-lactones were purified (99.9% purity by GC/MS) by high performance liquid chromatography (HPLC) using a Waters 515 pump, a Waters R401 refractive index detector, and a 25 cm by 0.46 cm i.d. silica column (Adsorbosphere Silica 5 μm, Alltech, Deerfield, Ill.), treated with silver nitrate as described by Heath and Sonnett (1980). Solvent was 8% ether in hexane. Ten micro liters of serially diluted solutions (methylene chloride) of synthetic (3Z)-lactone and (3E)-lactone were applied to filter paper strips (0.5 cm×5 cm, Whatman no. 1). The filter paper strips were placed in 14-cm-long Pasteur pipettes, hereafter referred to as stimulus cartridges, after 5 min at room temperature. Stimulus doses tested were 0.01, 0.1, 1, 10, and 100 μg. Male and female antennae were exposed to single 0.2s puffs of odor-bearing air at 5 ml/s by placing the tip of an stimulus cartridge into a hole of a glass tube (0.7 cm ID×20 cm), 10 cm from the outlet and 11 cm away from the antennal preparation. Airflow through the glass tube was humidified and set at 10 ml/s. Puff duration and airflow speeds were maintained by a stimulus flow controller (SFC-2, Syntech, Hilversum, The Netherlands). Stimuli cartridges were selected in random order, beginning with the lowest dosages and working upward to the highest dosages. Each puffed dosage was preceded and followed by a puff from a solvent blank cartridge (filter paper plus solvent). To compensate for possible deterioration of the antennal preparation, a standard control compound, geranyl acetone (1 μg dose) preceded dosages of stimuli compound. EAG amplitudes were normalized according to the responses to geranyl acetone by dividing the amplitude of the EAG generated by the test compounds by that of geranyl acetone. Dose-response series were replicated, using different antennal preparation for each replication, and the EAG responses were expressed as a percentage of the EAG responses to geranyl acetone. Each antennal preparation was tested with freshly prepared sets of stimuli cartridges. Male and female EAG responses were submitted to analysis of variance (ANOVA) using Statistica for Windows software (StatSoft Inc. Tulsa, Okla.))."}, "[6]": {"details": "females, low dose of Phoebe oil"}}, "data": [{"smiles": "CCCCCCCCCCCCCCCCC(C)CCCCCCCC", "note": "(centres unmarked) [9-methylpentacosane]", "values": [{"measurement": "copulatory activity in males upon antennal contact (literature)", "setting": "[1]", "value": "stimulates full copulatory activity in males"}]}, {"smiles": "CC/C=C\\CCO", "note": "[(3Z)-hexenol]", "values": [{"measurement": "attraction of females in Y-tube olfactometer vs hexane control", "setting": "[2]; [6]", "value": "slightly attracted"}, {"measurement": "females responded in Y-tube olfactometer", "setting": "[2]; [6]", "value": 75, "unit": "%"}, {"measurement": "attraction of males in Y-tube olfactometer vs hexane control", "setting": "[2]; males, lactone 10 μg, chi-square test", "value": "highly attracted"}, {"measurement": "attractiveness to A. planipennis (literature)", "setting": "[3]", "value": "highly antennally active and attractive to males"}, {"measurement": "mean capture of males per trap, effect of presence of the lure component", "setting": "[4]", "value": "significantly and positively affected"}, {"measurement": "mean catch of females, effect of the lure component", "setting": "[4]", "value": "not"}]}, {"smiles": "CC(=O)CC/C=C(\\C)CCC=C(C)C", "note": "[geranyl acetone, reference compound]", "values": [{"measurement": "mean EAG response of antennae to standard (±SD)", "setting": "[5]", "value": "−0.06±0.03", "unit": "mV"}]}]}
